Laboratory results taken from patent US12612380B2, “Non-lysosomal glucosylceramidase inhibitors and uses thereof” (ALECTOS THERAPEUTICS INC., priority 2019, dated 2026).

The molecules below were run against T1, GBA2 (Homo sapiens, UniProt Q9HCG7) (assay: Determination of IC50 values for inhibition of GBA2 in cell lysate). Details: cellular homogenate of HEK293T cells overexpressing human GBA2, 250 μM 4-methylumbelliferone-β-D glucopyranoside, pH 5.5, 37° C., GCase inhibitor present; read-out: GBA2 IC50.
T1 sequence (Q9HCG7 1-927): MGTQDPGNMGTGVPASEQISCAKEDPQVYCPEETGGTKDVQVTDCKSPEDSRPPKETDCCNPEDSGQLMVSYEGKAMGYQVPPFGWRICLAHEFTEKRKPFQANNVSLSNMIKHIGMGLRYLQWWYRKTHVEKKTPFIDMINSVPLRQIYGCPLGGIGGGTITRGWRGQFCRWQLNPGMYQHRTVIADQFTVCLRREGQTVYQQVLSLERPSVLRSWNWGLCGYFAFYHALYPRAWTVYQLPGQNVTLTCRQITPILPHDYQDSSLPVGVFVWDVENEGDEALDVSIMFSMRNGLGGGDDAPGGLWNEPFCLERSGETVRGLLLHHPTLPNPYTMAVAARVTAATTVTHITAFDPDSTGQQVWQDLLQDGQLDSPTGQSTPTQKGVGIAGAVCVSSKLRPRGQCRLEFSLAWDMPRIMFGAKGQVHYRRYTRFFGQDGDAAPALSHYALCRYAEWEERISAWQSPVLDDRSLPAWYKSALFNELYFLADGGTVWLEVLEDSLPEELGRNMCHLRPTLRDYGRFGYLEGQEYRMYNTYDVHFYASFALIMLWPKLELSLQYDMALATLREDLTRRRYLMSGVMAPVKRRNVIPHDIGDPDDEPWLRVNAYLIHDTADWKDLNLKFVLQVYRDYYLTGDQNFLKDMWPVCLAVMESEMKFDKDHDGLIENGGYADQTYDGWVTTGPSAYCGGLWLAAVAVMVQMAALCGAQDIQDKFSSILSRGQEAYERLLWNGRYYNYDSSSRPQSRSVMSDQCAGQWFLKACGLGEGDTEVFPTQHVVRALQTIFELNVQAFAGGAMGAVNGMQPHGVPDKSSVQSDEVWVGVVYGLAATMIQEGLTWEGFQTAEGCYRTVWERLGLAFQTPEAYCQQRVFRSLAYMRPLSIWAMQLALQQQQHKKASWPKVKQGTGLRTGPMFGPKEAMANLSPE
Assay type: biochemical
Design: host or cells: HEK293T (lentiviral transduction, puromycin selection); used as cellular homogenate
Method in brief: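 Homogenate of HEK293T cells stably overexpressing human GBA2 (0.083 mg/mL final), pretreated with 20 μM GCase inhibitor, preincubated 5 min at 37 °C with compound, then reacted 20 min with 250 μM 4-methylumbelliferyl-β-D-glucopyranoside at pH 5.5 (citrate-phosphate, 1% C10E6). Fluorescence read at 365/450 nm after alkaline stop; IC50 from log-inhibitor curve fit.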

SMILES	IC50
C[C@@H]1[C@@H](O)[C@H](O)[C@@H](O)CN1CC1CCN(C(=O)[C@H]2CC[C@H](C(C)(C)C)CC2)CC1 [Example 103, ((1r,4R)-4-(tert-butyl)cyclohexyl)(4-(((2R,3R,4R,5S)-3,4,5-trihydroxy-2-methylpiperidin-1-yl)methyl)piperidin-1-yl)methanone]	< 100 nM
COC1CCC(C(=O)N2CCC(CN3C[C@H](O)[C@@H](O)[C@H](O)[C@H]3C)CC2)CC1 (stereo partly drawn) [Example 104, (4-methoxycyclohexyl)(4-(((2R,3R,4R,5S)-3,4,5-trihydroxy-2-methylpiperidin-1-yl)methyl)piperidin-1-yl)methanone]	1000 to 25000 nM
C[C@@H]1[C@@H](O)[C@H](O)[C@@H](O)CN1CC1CCN(C(=O)C2CCC(C(F)(F)F)CC2)CC1 (stereo partly drawn) [Example 105, (4-(trifluoromethyl)cyclohexyl)(4-(((2R,3R,4R,5S)-3,4,5-trihydroxy-2-methylpiperidin-1-yl)methyl)piperidin-1-yl)methanone]	< 100 nM
C[C@@H]1[C@@H](O)[C@H](O)[C@@H](O)CN1CC1CCN(C(=O)c2ccccc2)CC1 [Example 106, phenyl(4-(((2R,3R,4R,5S)-3,4,5-trihydroxy-2-methylpiperidin-1-yl)methyl)piperidin-1-yl)methanone]	100 to 1000 nM
C[C@@H]1[C@@H](O)[C@H](O)[C@@H](O)CN1CC1CCN(C(=O)c2cccc(C(F)(F)F)c2)CC1 [Example 107, (3-(trifluoromethyl)phenyl)(4-(((2R,3R,4R,5S)-3,4,5-trihydroxy-2-methylpiperidin-1-yl)methyl)piperidin-1-yl)methanone]	< 100 nM
C[C@@H]1[C@@H](O)[C@H](O)[C@@H](O)CN1CC1CCN(C(=O)Cc2ccccc2)CC1 [Example 108, 2-phenyl-1-(4-(((2R,3R,4R,5S)-3,4,5-trihydroxy-2-methylpiperidin-1-yl)methyl)piperidin-1-yl)ethanone]	100 to 1000 nM
C[C@@H]1[C@@H](O)[C@H](O)[C@@H](O)CN1CC1CCN(C(=O)c2ccsc2)CC1 [Example 109, thiophen-3-yl(4-(((2R,3R,4R,5S)-3,4,5-trihydroxy-2-methylpiperidin-1-yl)methyl)piperidin-1-yl)methanone]	100 to 1000 nM
C[C@@H]1[C@@H](O)[C@H](O)[C@@H](O)CN1CC1CCN(C(=O)NC2CCCCC2)CC1 [Example 110, N-cyclohexyl-4-(((2R,3R,4R,5S)-3,4,5-trihydroxy-2-methylpiperidin-1-yl)methyl)piperidine-1-carboxamide]	100 to 1000 nM
C[C@@H]1[C@@H](O)[C@H](O)[C@@H](O)CN1CC1CCN(C(=S)NC2CCCCC2)CC1 [Example 111, N-cyclohexyl-4-(((2R,3R,4R,5S)-3,4,5-trihydroxy-2-methylpiperidin-1-yl)methyl)piperidine-1-carbothioamide]	100 to 1000 nM
C[C@@H]1[C@@H](O)[C@H](O)[C@@H](O)CN1CC1CN([C@H]2CCCC[C@H]2C(F)(F)F)C1 [Example 112, (2R,3R,4R,5S)-2-methyl-1-((1-((1S,2R)-2-(trifluoromethyl)cyclohexyl)azetidin-3-yl)methyl)piperidine-3,4,5-triol]	1000 to 25000 nM
C[C@@H]1[C@@H](O)[C@H](O)[C@@H](O)CN1C[C@H]1CCN(c2ccccc2)C1 [Example 113, (2R,3R,4R,5S)-2-methyl-1-(((R)-1-phenylpyrrolidin-3-yl)methyl)piperidine-3,4,5-triol]	< 100 nM
C[C@@H]1[C@@H](O)[C@H](O)[C@@H](O)CN1C[C@H]1CCN(c2cc(C(F)(F)F)ccn2)C1 [Example 121, (2R,3R,4R,5S)-2-methyl-1-(((R)-1-(4-(trifluoromethyl)pyridin-2-yl)pyrrolidin-3-yl)methyl)piperidine-3,4,5-triol]	< 100 nM
C[C@@H]1[C@@H](O)[C@H](O)[C@@H](O)CN1C[C@H]1CCN(c2cccnc2)C1 [Example 122, (2R,3R,4R,5S)-2-methyl-1-(((R)-1-(pyridin-3-yl)pyrrolidin-3-yl)methyl)piperidine-3,4,5-triol]	1000 to 25000 nM
Cc1ccncc1N1CC[C@H](CN2C[C@H](O)[C@@H](O)[C@H](O)[C@H]2C)C1 [Example 123, (2R,3R,4R,5S)-2-methyl-1-(((R)-1-(4-methylpyridin-3-yl)pyrrolidin-3-yl)methyl)piperidine-3,4,5-triol]	100 to 1000 nM
C[C@@H]1[C@@H](O)[C@H](O)[C@@H](O)CN1C[C@H]1CCN(c2cnccc2C(F)(F)F)C1 [Example 124, (2R,3R,4R,5S)-2-methyl-1-(((R)-1-(4-(trifluoromethyl)pyridin-3-yl)pyrrolidin-3-yl)methyl)piperidine-3,4,5-triol]	< 100 nM
C[C@@H]1[C@@H](O)[C@H](O)[C@@H](O)CN1C[C@H]1CCN(c2cncc(C(F)(F)F)c2)C1 [Example 125, (2R,3R,4R,5S)-2-methyl-1-(((R)-1-(5-(trifluoromethyl)pyridin-3-yl)pyrrolidin-3-yl)methyl)piperidine-3,4,5-triol]	< 100 nM

Other lines, results leading:

IC50	SMILES
< 100 nM	C[C@@H]1[C@@H](O)[C@H](O)[C@@H](O)CN1C[C@H]1CCN(c2cccnc2C(F)(F)F)C1 [Example 126, (2R,3R,4R,5S)-2-methyl-1-(((R)-1-(2-(trifluoromethyl)pyridin-3-yl)pyrrolidin-3-yl)methyl)piperidine-3,4,5-triol]
< 100 nM	C[C@@H]1[C@@H](O)[C@H](O)[C@@H](O)CN1C[C@H]1CCN(c2cncnc2C(F)(F)F)C1 [Example 127, (2R,3R,4R,5S)-2-methyl-1-(((R)-1-(4-(trifluoromethyl)pyrimidin-5-yl)pyrrolidin-3-yl)methyl)piperidine-3,4,5-triol]
< 100 nM	C[C@@H]1[C@@H](O)[C@H](O)[C@@H](O)CN1C[C@H]1CCN(c2ccsc2)C1 [Example 128, (2R,3R,4R,5S)-2-methyl-1-(((R)-1-(thiophen-3-yl)pyrrolidin-3-yl)methyl)piperidine-3,4,5-triol]
< 100 nM	C[C@@H]1[C@@H](O)[C@H](O)[C@@H](O)CN1C[C@H]1CCN(C(=O)c2ccc(C(F)(F)F)cc2)C1 [Example 130, (4-(trifluoromethyl)phenyl)((R)-3-(((2R,3R,4R,5S)-3,4,5-trihydroxy-2-methylpiperidin-1-yl)methyl)pyrrolidin-1-yl)methanone]
< 100 nM	C[C@@H]1[C@@H](O)[C@H](O)[C@@H](O)CN1C[C@@H]1CCN(c2ncccc2C(F)(F)F)C1 [Example 132, (2R,3R,4R,5S)-2-methyl-1-(((S)-1-(3-(trifluoromethyl)pyridin-2-yl)pyrrolidin-3-yl)methyl)piperidine-3,4,5-triol]
< 100 nM	C[C@@H]1[C@@H](O)[C@H](O)[C@@H](O)CN1C[C@@H]1CCN(c2cnccc2C(F)(F)F)C1 [Example 133, (2R,3R,4R,5S)-2-methyl-1-(((S)-1-(4-(trifluoromethyl)pyridin-3-yl)pyrrolidin-3-yl)methyl)piperidine-3,4,5-triol]
< 100 nM	C[C@@H]1[C@@H](O)[C@H](O)[C@@H](O)CN1C[C@@H]1CCN(c2cncnc2C(F)(F)F)C1 [Example 134, (2R,3R,4R,5S)-2-methyl-1-(((S)-1-(4-(trifluoromethyl)pyrimidin-5-yl)pyrrolidin-3-yl)methyl)piperidine-3,4,5-triol]
< 100 nM	C[C@@H]1[C@@H](O)[C@H](O)[C@@H](O)CN1C[C@@H]1CCN(c2nc(C(F)(F)F)cs2)C1 [Example 135, (2R,3R,4R,5S)-2-methyl-1-(((S)-1-(4-(trifluoromethyl)thiazol-2-yl)pyrrolidin-3-yl)methyl)piperidine-3,4,5-triol]
< 100 nM	C[C@@H]1[C@@H](O)[C@H](O)[C@@H](O)CN1C[C@@H]1CCCN(c2cccc(C(F)(F)F)n2)C1 [Example 143, (2R,3R,4R,5S)-2-methyl-1-(((S)-1-(6-(trifluoromethyl)pyridin-2-yl)piperidin-3-yl)methyl)piperidine-3,4,5-triol]
100 to 1000 nM	C[C@@H]1[C@@H](O)[C@H](O)[C@@H](O)CN1C[C@@H]1CCCN(c2nc(C(F)(F)F)cs2)C1 [Example 144, (2R,3R,4R,5S)-2-methyl-1-(((S)-1-(4-(trifluoromethyl)thiazol-2-yl)piperidin-3-yl)methyl)piperidine-3,4,5-triol]
< 100 nM	CC(C)C1CCC(CN2C[C@H](O)[C@@H](O)[C@H](O)[C@H]2CF)CC1 (stereo partly drawn) [Example 145, (2S,3R,4R,5S)-2-(fluoromethyl)-1-((4-isopropylcyclohexyl)methyl)piperidine-3,4,5-triol]
